Target: T1, human TRPV4 (Homo sapiens, UniProt Q9HBA0)
T1 construct: host or cells: tetracycline-inducible Flp-In T-REx 293 cells
Experiment: Hypotonicity-induced Ca2+ influx (Fluo-4, FDSS)
Type: cell-based
In short: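 Flp-In T-REx 293 cells with tetracycline-induced human TRPV4, loaded with Fluo-4 for 60 min at 25 °C. Compound added 5 min before hypotonic mannitol/CaCl2 solution. Ca2+ signal recorded for 4.5 min on FDSS.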

[1] = Flp-In T-REx 293 cells expressing human TRPV4, examples listed under heading 'Human IC50<50 nM'
[2] = Flp-In T-REx 293 cells stably expressing human TRPV4, compounds listed by potency bin (<10 nM Tables 96-1/96-2, <3 nM Table 97)

T1 sequence (Q9HBA0 whole entry): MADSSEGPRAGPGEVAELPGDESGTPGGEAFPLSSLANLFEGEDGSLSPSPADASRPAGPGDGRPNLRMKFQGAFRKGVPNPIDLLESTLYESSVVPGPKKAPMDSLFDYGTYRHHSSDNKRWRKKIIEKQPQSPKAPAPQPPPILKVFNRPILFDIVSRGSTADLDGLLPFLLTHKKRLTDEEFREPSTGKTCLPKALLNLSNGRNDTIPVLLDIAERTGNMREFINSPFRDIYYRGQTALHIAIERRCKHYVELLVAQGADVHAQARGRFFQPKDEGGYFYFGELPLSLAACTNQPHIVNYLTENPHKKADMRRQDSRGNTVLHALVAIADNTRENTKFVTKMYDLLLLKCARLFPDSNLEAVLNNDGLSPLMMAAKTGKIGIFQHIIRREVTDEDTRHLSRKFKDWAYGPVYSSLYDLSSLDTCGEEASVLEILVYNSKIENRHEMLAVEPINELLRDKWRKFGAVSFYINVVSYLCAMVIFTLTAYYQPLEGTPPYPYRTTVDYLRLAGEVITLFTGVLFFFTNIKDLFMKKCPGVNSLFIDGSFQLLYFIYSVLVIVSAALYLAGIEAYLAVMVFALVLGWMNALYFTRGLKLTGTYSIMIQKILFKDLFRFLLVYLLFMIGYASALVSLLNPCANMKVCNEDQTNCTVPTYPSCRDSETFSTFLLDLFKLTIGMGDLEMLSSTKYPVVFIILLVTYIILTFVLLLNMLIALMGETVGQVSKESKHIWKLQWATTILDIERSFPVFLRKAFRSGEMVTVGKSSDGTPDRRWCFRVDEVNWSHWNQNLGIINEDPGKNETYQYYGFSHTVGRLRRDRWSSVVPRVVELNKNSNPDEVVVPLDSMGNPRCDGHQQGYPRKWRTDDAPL

Row | SMILES | IC50 [1] | IC50 [2]
1 | O=C(C(O)c1cccc(-c2cc(C(F)(F)F)ccc2Cl)c1)N1CCc2nc(C3(c4ccccc4)CC3)[nH]c(=O)c2C1 (centres unmarked) [44-13] | < 50 nM | < 10 nM
2 | O=C(C(O)c1cccc(C2CC2)c1)N1CCCc2nc(C3(c4cccc(F)c4)CC3)[nH]c(=O)c2C1 (centres unmarked) [17-53] | < 50 nM | –
3 | O=C([C@H](O)c1cccc(-c2ccc(C(F)(F)F)cc2)c1)N1CCCc2nc(C3(c4cccc(Cl)c4)CC3)[nH]c(=O)c2C1 [50-24] | < 50 nM | < 10 nM
4 | CC(C)c1cccc(C2(c3nc4c(c(=O)[nH]3)CN(C(=O)C(O)c3cccc(C(F)(F)F)c3F)CCC4)CC2)c1 (centres unmarked) [17-9] | < 50 nM | < 10 nM
5 | CC(C)Oc1cccc(-c2cccc([C@@H](O)C(=O)N3CCCc4nc(C5(c6ccccc6)CC5)[nH]c(=O)c4C3)c2)c1 [49-45] | < 50 nM | < 3 nM
6 | CC(C)(C)c1cccc(C(O)C(=O)N2CCCc3nc(C4(c5cccc(F)c5)CC4)[nH]c(=O)c3C2)c1 (centres unmarked) [17-21] | < 50 nM | < 10 nM
7 | O=C([C@H](O)c1cccc(Cl)c1)N1CCCc2nc(C3(c4cccc(-c5cc6ccccc6o5)c4)CC3)[nH]c(=O)c2C1 [40-17] | < 50 nM | < 3 nM
8 | COc1ccc(-c2cccc(C(O)C(=O)N3CCc4nc(C5(c6ccccc6)CC5)[nH]c(=O)c4C3)c2)cc1 (centres unmarked) [44-58] | < 50 nM | –
9 | O=C([C@H](O)c1cccc(C(F)(F)F)c1)N1CCCc2nc(C3(c4cc(C(=O)N(Cc5ccccc5)C5CCCCC5)cs4)CC3)[nH]c(=O)c2C1 [59-16] | < 50 nM | < 10 nM
10 | O=C(C(O)c1cccc(-c2cncc(C(F)(F)F)c2)c1)N1CCc2nc(C3(c4ccccc4)CC3)[nH]c(=O)c2C1 (centres unmarked) [44-19] | < 50 nM | –
11 | O=C([C@H](O)c1cccc(C(F)(F)F)c1)N1CCCc2nc(C3(c4cccc(-c5ccc6ccccc6c5)c4)CC3)[nH]c(=O)c2C1 [42-47] | < 50 nM | < 10 nM
12 | O=C([C@H](O)c1cccc(-c2cc(Cl)cc(C(F)(F)F)c2)c1)N1CCc2nc(C3(c4ccccc4)CC3)[nH]c(=O)c2C1 [44-99] | < 50 nM | < 10 nM
13 | N#Cc1cc(F)cc(-c2cccc(C3(c4nc5c(c(=O)[nH]4)CN(C(=O)[C@H](O)c4cccc(C(F)(F)F)c4)CCC5)CC3)c2)c1 [42-69] | < 50 nM | < 10 nM
14 | CC(C)c1csc(C2(c3nc4c(c(=O)[nH]3)CN(C(=O)C(F)(F)c3cccc(Cl)c3F)CCC4)CC2)c1 [21-6] | < 50 nM | < 10 nM
15 | CC(C)c1cncc(C2(c3nc4c(c(=O)[nH]3)CN(C(=O)C(F)(F)c3cccc(Cl)c3)CCC4)CC2)c1 [22-3] | < 50 nM | < 3 nM
16 | O=C([C@H](O)c1cccc(C(F)(F)F)c1)N1CCc2nc(C3(c4cccc(-c5cccnc5)c4)CC3)[nH]c(=O)c2C1 [37-2] | < 50 nM | < 10 nM
17 | O=C(Cc1cccc(C(F)(F)F)c1)N1CCCc2nc(C3(c4cccc(Cl)c4)CC3)[nH]c(=O)c2C1 [17-110] | < 50 nM | < 10 nM
18 | O=C([C@H](O)c1cccc(-c2cccc(C(F)(F)F)c2)c1)N1CCCc2c(nc(C3(c4ccccc4)CC3)[nH]c2=O)C1 [49-54] | < 50 nM | < 10 nM
19 | O=C([C@H](O)c1cccc(-c2cccc(Cl)c2)c1)N1CCc2nc(C3(c4ccccc4)CC3)[nH]c(=O)c2C1 [44-73] | < 50 nM | < 10 nM

Row | SMILES | IC50 [1] | IC50 [2]
20 | O=C(C(O)c1cccc(-c2ccc(Cl)c(F)c2)c1)N1CCc2nc(C3(c4ccccc4)CC3)[nH]c(=O)c2C1 (centres unmarked) [44-15] | < 50 nM | < 10 nM
21 | O=C([C@H](O)c1cccc(C(F)(F)F)c1)N1CCCc2nc(C3(c4cccc(-c5ccc6sccc6c5)c4)CC3)[nH]c(=O)c2C1 [17-96] | < 50 nM | < 10 nM
22 | O=C([C@H](O)c1cccc(C(F)(F)F)c1)N1CCc2nc(C3(c4cc(-c5ccccc5)cs4)CC3)[nH]c(=O)c2C1 [36-1] | < 50 nM | < 10 nM
23 | CN1CCN(Cc2ccc(-c3cccc(C4(c5nc6c(c(=O)[nH]5)CN(C(=O)[C@H](O)c5cccc(C(F)(F)F)c5)CCC6)CC4)c3)cc2)CC1 [42-37] | < 50 nM | –
24 | CN(Cc1ccc(Oc2ccccc2)cc1)C(=O)c1csc(C2(c3nc4c(c(=O)[nH]3)CN(C(=O)[C@H](O)c3cccc(C(F)(F)F)c3)CCC4)CC2)c1 [59-11] | < 50 nM | < 10 nM
25 | CC(C)(C)c1cccc(C(O)C(=O)N2CCCc3nc(C4(c5cncc(-c6ccccc6)c5)CC4)[nH]c(=O)c3C2)c1 (centres unmarked) [19-5] | < 50 nM | < 10 nM
26 | COCCOc1cccc(-c2cccc(C3(c4nc5c(c(=O)[nH]4)CN(C(=O)[C@H](O)c4cccc(C(F)(F)F)c4)CCC5)CC3)c2)c1 [42-4] | < 50 nM | < 3 nM
27 | O=C(C(O)c1cccc(-c2cccc(F)c2)c1F)N1CCc2nc(C3(c4ccccc4)CC3)[nH]c(=O)c2C1 (centres unmarked) [44-33] | < 50 nM | –
28 | CC(C)(C)c1ccc(-c2cccc(CC(=O)N3CCCc4nc(C5(c6cccc(Cl)c6)CC5)[nH]c(=O)c4C3)c2)cc1 [17-127] | < 50 nM | < 10 nM
29 | O=C(C(O)c1cccc(-c2cccc(C(F)(F)F)c2)c1)N1CCc2nc(C3(c4ccccc4)CC3)[nH]c(=O)c2C1 (centres unmarked) [44-6] | < 50 nM | < 10 nM
30 | O=C([C@H](O)c1cccc(C(F)(F)F)c1)N1CCCc2nc(C3(c4cc(-c5ccccc5)cs4)CC3)[nH]c(=O)c2C1 [41-1] | < 50 nM | < 3 nM
31 | O=C(C(O)c1cccc(OCc2ccccc2)c1)N1CCc2nc(C3(c4ccccc4)CC3)[nH]c(=O)c2C1 (centres unmarked) [14-111] | < 50 nM | –
32 | O=C(C(O)c1cccc(-c2cccc(OC(F)(F)F)c2)c1)N1CCc2nc(C3(c4cccc(F)c4)CC3)[nH]c(=O)c2C1 (centres unmarked) [14-7] | < 50 nM | < 10 nM
33 | O=C([C@H](O)c1cccc(C(F)(F)F)c1)N1CCCc2nc(C3(c4cc(CCC5(O)CCCCC5)cs4)CC3)[nH]c(=O)c2C1 [30-14] | < 50 nM | < 10 nM
34 | O=C([C@H](O)c1cccc(-c2csc3ccccc23)c1)N1CCCc2nc(C3(c4cccc(Cl)c4)CC3)[nH]c(=O)c2C1 [50-1] | < 50 nM | < 10 nM
35 | O=C(C(O)c1cccc(Cl)c1F)N1CCCc2nc(C3(c4cccs4)CC3)[nH]c(=O)c2C1 (centres unmarked) [18-10] | < 50 nM | –
36 | O=C([C@H](O)c1cccc(C(F)(F)F)c1)N1CCCc2nc(C3(c4cccc(-c5cnc(-c6ccccc6)s5)c4)CC3)[nH]c(=O)c2C1 [17-98] | < 50 nM | < 3 nM
37 | O=C(C(O)c1cccc(OCc2ccccc2)c1)N1CCCc2nc(C3(c4cccc(Cl)c4)CC3)[nH]c(=O)c2C1 (centres unmarked) [17-13] | < 50 nM | < 10 nM
38 | O=C([C@H](O)c1cccc(-c2cc(Cl)cc(Cl)c2)c1)N1CCc2nc(C3(c4ccccc4)CC3)[nH]c(=O)c2C1 [44-100] | < 50 nM | < 10 nM

Row | SMILES | IC50 [1] | IC50 [2]
39 | N#Cc1ccc(-c2cccc(C3(c4nc5c(c(=O)[nH]4)CN(C(=O)[C@H](O)c4cccc(C(F)(F)F)c4)CCC5)CC3)c2)cc1C#N [42-68] | < 50 nM | < 10 nM
40 | CC(C)Oc1ccc(-c2cccc(C(O)C(=O)N3CCc4nc(C5(c6ccccc6)CC5)[nH]c(=O)c4C3)c2)cc1 (centres unmarked) [44-38] | < 50 nM | –
41 | O=C([C@H](O)c1cccc(-c2cccc(Cl)c2)c1)N1CCCc2nc(C3(c4cccc(C5CCCCC5)c4)CC3)[nH]c(=O)c2C1 [52-3] | < 50 nM | < 3 nM
42 | O=C([C@H](O)c1cccc(C(F)(F)F)c1)N1CCCc2nc(C3(c4cccc(C5=CCN(C(=O)[C@H]6CC[C@H](C(F)(F)F)CC6)CC5)c4)CC3)[nH]c(=O)c2C1 [42-77] | < 50 nM | < 3 nM
43 | O=C(Cc1cccc(S(F)(F)(F)(F)F)c1)N1CCCc2nc(C3(c4ccccc4)CC3)[nH]c(=O)c2C1 [17-31] | < 50 nM | < 10 nM
44 | O=C(C(O)c1cccc(-c2ccccc2OC(F)(F)F)c1)N1CCc2nc(C3(c4ccccc4)CC3)[nH]c(=O)c2C1 (centres unmarked) [44-57] | < 50 nM | –
45 | O=C(C(O)c1cccc(C(F)(F)F)c1F)N1CCc2nc(C3(c4cccc(Cl)c4)CC3)[nH]c(=O)c2C1 (centres unmarked) [14-20] | < 50 nM | –
46 | O=C([C@H](O)c1cccc(Cl)c1)N1CCCc2nc(C3(c4cccc(-c5csc6ccccc56)c4)CC3)[nH]c(=O)c2C1 [40-11] | < 50 nM | < 3 nM
47 | O=C(C(O)c1cccc(C(F)(F)F)c1F)N1CCc2nc(C3(c4cccs4)CC3)[nH]c(=O)c2C1 (centres unmarked) [15-16] | < 50 nM | –
48 | O=C([C@H](O)c1cccc(C(F)(F)F)c1)N1CCc2nc(C3(c4cc(Br)cs4)CC3)[nH]c(=O)c2C1 [15-9] | < 50 nM | < 10 nM
49 | O=C([C@H](O)c1cccc(Cl)c1)N1CCCc2nc(C3(c4cccc(-c5ccccc5)c4)CC3)[nH]c(=O)c2C1 [40-1] | < 50 nM | < 3 nM
50 | CC(C)c1cccc(C2(c3nc4c(c(=O)[nH]3)CN(C(=O)Cc3cccc(-c5cccc(Cl)c5)c3)CCC4)CC2)c1 [31-15] | < 50 nM | < 10 nM
51 | Cn1cc(-c2cccc(C3(c4nc5c(c(=O)[nH]4)CN(C(=O)[C@H](O)c4cccc(C(F)(F)F)c4)CCC5)CC3)c2)cn1 [42-27] | < 50 nM | < 10 nM
52 | CC(C)(C)c1cccc(-c2cccc(CC(=O)N3CCc4nc(C5(c6cccc(Cl)c6)CC5)[nH]c(=O)c4C3)c2)c1 [45-13] | < 50 nM | < 10 nM
53 | O=C([C@H](O)c1cccc(C(F)(F)F)c1)N1CCCc2nc(C3(c4cccc(OCc5ccccc5)c4)CC3)[nH]c(=O)c2C1 [17-90] | < 50 nM | < 10 nM
54 | O=C([C@H](O)c1cccc(-c2cccc(OC(F)(F)F)c2)c1)N1CCCc2nc(C3(c4cncc(-c5ccccc5)c4)CC3)[nH]c(=O)c2C1 [56-6] | < 50 nM | < 10 nM
55 | O=C([C@H](O)c1cccc(-c2cccc(C(F)(F)F)n2)c1)N1CCc2nc(C3(c4ccccc4)CC3)[nH]c(=O)c2C1 [44-78] | < 50 nM | < 3 nM
56 | O=C([C@H](O)c1cccc(C(F)(F)F)c1)N1CCCc2nc(C3(c4cccc(C5CCN(CC(F)(F)F)CC5)c4)CC3)[nH]c(=O)c2C1 [31-1] | < 50 nM | < 3 nM

Reference: patent US12673946B2, “Pyrimidin-4(3H)-one derivatives as TRPV4 antagonists” (RaQualia Pharma Inc., priority 2020, dated 2026)
